Experimental findings from patent EP3782997A1, “FUSED PYRIMIDINE COMPOUNDS AND PHARMACEUTICAL COMPOSITIONS THEREOF FOR THE TREATMENT OF FIBROTIC DISEASES” (Galapagos N.V., priority 2019, dated 2021) are described below.

This test has as its target hENPP2 (Homo sapiens, UniProt Q13822). Briefly: Human ENPP2 (hENPP2) biochemical assay using LPC as substrate. To be noted: 150 µM LPC (palmitoyl 16:0), 37°C for 30 min. The gist of the method: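 Enzyme at 1 or 3 µg/mL final in Tris-HCl pH 8.5, NaCl, KCl, CaCl2, fatty-acid-free BSA; reaction started with 150 µM LPC 16:0 (as added), 30 min at 37°C. Released choline developed with choline oxidase/peroxidase/TOOS/4-aminoantipyrine plus EGTA stop, read at 555 nm after 30 min; 1/3 dilutions from 50 µM give IC50.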
`COc1cc2[nH]nnc2cc1C(=O)N1CC[C@@H](N2Cc3cnc(Nc4cc(C)cc(C)c4)nc3C2)C[C@@H]1C` [compound 112, [(2S,4R)-4-[2-(3,5-dimethylanilino)-5,7-dihydropyrrolo[3,4-d]pyrimidin-6-yl]-2-methyl-1-piperidyl]-(6-methoxy-1H-benzotriazol-5-yl)methanone]: the IC50 was 0.01 to 100 nM. To `COc1cc2[nH]nnc2cc1C(=O)N1CC[C@H](N2Cc3cnc(Nc4cc(C)cc(C)c4)nc3C2)C[C@@H]1C` [compound 113, [(2S,4S)-4-[2-(3,5-dimethylanilino)-5,7-dihydropyrrolo[3,4-d]pyrimidin-6-yl]-2-methyl-1-piperidyl]-(6-methoxy-1H-benzotriazol-5-yl)methanone] belongs 0.01 to 100 nM; to `Cc1cc(C)cc(Nc2ncc3c(n2)CN(C2CC4CCC(C2)N4C(=O)c2ccc4[nH]nnc4c2)C3)c1` (stereo not shown) [compound 114, 1H-benzotriazol-5-yl-[3-[2-(3,5-dimethylanilino)-5,7-dihydropyrrolo[3,4-d]pyrimidin-6-yl]-8-azabicyclo[3.2.1]octan-8-yl]methanone], 100 to 500 nM.

`Cc1cc(C)cc(Nc2ncc3c(n2)CN([C@H]2CCN(C(=O)c4cc5nn[nH]c5cc4F)[C@H](C)C2)C3)c1` [compound 116, [(2R,4S)-4-[2-(3,5-dimethylanilino)-5,7-dihydropyrrolo[3,4-d]pyrimidin-6-yl]-2-methyl-1-piperidyl]-(6-fluoro-1H-benzotriazol-5-yl)methanone] had an IC50 of 0.01 to 100 nM. In the case of `COc1cc2[nH]nnc2cc1C(=O)N1CC[C@H](N2Cc3cnc(Nc4cc(C)cc(C)c4)nc3C2)C[C@H]1C` [compound 120, [(2R,4S)-4-[2-(3,5-dimethylanilino)-5,7-dihydropyrrolo[3,4-d]pyrimidin-6-yl]-2-methyl-1-piperidyl]-(6-methoxy-1H-benzotriazol-5-yl)methanone] it was 0.01 to 100 nM; in that of `Cc1cc(C)cc(Nc2ncc3c(n2)CN([C@H]2CCN(C(=O)c4cccc(-c5nnn[nH]5)c4)[C@@H](C)C2)C3)c1` [compound 123, [(2S,4S)-4-[2-(3,5-dimethylanilino)-5,7-dihydropyrrolo[3,4-d]pyrimidin-6-yl]-2-methyl-1-piperidyl]-[3-(1H-tetrazol-5-yl)phenyl]methanone], greater than 1000 nM; in that of `COc1cc(Nc2ncc3c(n2)CN([C@@H]2CCN(C(=O)c4ccc5[nH]nnc5c4)[C@H](C)C2)C3)ccc1F` [compound 126, 1H-benzotriazol-5-yl-[(2R,4R)-4-[2-(4-fluoro-3-methoxy-anilino)-5,7-dihydropyrrolo[3,4-d]pyrimidin-6-yl]-2-methyl-1-piperidyl]methanone], 0.01 to 100 nM. In turn, `COc1cc(Nc2ncc3c(n2)CN([C@@H]2CCN(C(=O)c4ccc5[nH]nnc5c4)[C@H](C)C2)C3)cc(C(F)(F)F)c1` [compound 127, 1H-benzotriazol-5-yl-[(2R,4R)-4-[2-[3-methoxy-5-(trifluoromethyl)anilino]-5,7-dihydropyrrolo[3,4-d]pyrimidin-6-yl]-2-methyl-1-piperidyl]methanone] registered an IC50 of 0.01 to 100 nM. In the case of `C[C@@H]1C[C@@H](N2Cc3cnc(Nc4cc(C#N)cc(C(F)(F)F)c4)nc3C2)CCN1C(=O)c1ccc2[nH]nnc2c1` [compound 128, 3-[[6-[(2R,4S)-1-(1H-benzotriazole-5-carbonyl)-2-methyl-4-piperidyl]-5,7-dihydropyrrolo[3,4-d]pyrimidin-2-yl]amino]-5-(trifluoromethyl)benzonitrile] it was 0.01 to 100 nM. To `C[C@@H]1C[C@H](N2Cc3cnc(Nc4cc(C(N)=O)cc(C(F)(F)F)c4)nc3C2)CCN1C(=O)c1ccc2[nH]nnc2c1` [compound 129, 3-[[6-[(2R,4R)-1-(1H-benzotriazole-5-carbonyl)-2-methyl-4-piperidyl]-5,7-dihydropyrrolo[3,4-d]pyrimidin-2-yl]amino]-5-(trifluoromethyl)benzamide] belongs 0.01 to 100 nM. In the case of `Cc1ccc(Nc2ncc3c(n2)CN([C@@H]2CCN(C(=O)c4ccc5[nH]nnc5c4)[C@H](C)C2)C3)cc1` [compound 134, 1H-benzotriazol-5-yl-[(2R,4R)-2-methyl-4-[2-(4-methylanilino)-5,7-dihydropyrrolo[3,4-d]pyrimidin-6-yl]-1-piperidyl]methanone] it was 0.01 to 100 nM. In the case of `C[C@@H]1C[C@H](N2Cc3cnc(Nc4ccc(Cl)cc4)nc3C2)CCN1C(=O)c1ccc2[nH]nnc2c1` [compound 135, 1H-benzotriazol-5-yl-[(2R,4R)-4-[2-(4-chloroanilino)-5,7-dihydropyrrolo[3,4-d]pyrimidin-6-yl]-2-methyl-1-piperidyl]methanone], the half-maximal inhibitory concentration (IC50) was in the range of 0.01 to 100 nM. In the case of `Cc1cc(C)cc(Nc2ncc3c(n2)CN(C2CCN(C(=O)c4cc5nn[nH]c5cn4)CC2)C3)c1` [compound 140, [4-[2-(3,5-dimethylanilino)-5,7-dihydropyrrolo[3,4-d]pyrimidin-6-yl]-1-piperidyl]-(3H-triazolo[4,5-c]pyridin-6-yl)methanone] it was 100 to 500 nM. Molecule `CCOc1cc2[nH]nnc2cc1C(=O)N1CCC(N2Cc3cnc(Nc4cc(C)cc(C)c4)nc3C2)CC1` [compound 141, [4-[2-(3,5-dimethylanilino)-5,7-dihydropyrrolo[3,4-d]pyrimidin-6-yl]-1-piperidyl]-(6-ethoxy-1H-benzotriazol-5-yl)methanone] yielded an IC50 of 0.01 to 100 nM. To `C[C@@H]1C[C@@H](N2Cc3cnc(Nc4ccc(F)cc4)nc3C2)CCN1C(=O)c1ccc2[nH]nnc2c1` [compound 143, 1H-benzotriazol-5-yl-[(2R,4S)-4-[2-(4-fluoroanilino)-5,7-dihydropyrrolo[3,4-d]pyrimidin-6-yl]-2-methyl-1-piperidyl]methanone] belongs 500 to 1000 nM; to `C[C@@H]1C[C@H](N2Cc3cnc(Nc4ccc(F)cc4)nc3C2)CCN1C(=O)c1ccc2[nH]nnc2c1` [compound 144, 1H-benzotriazol-5-yl-[(2R,4R)-4-[2-(4-fluoroanilino)-5,7-dihydropyrrolo[3,4-d]pyrimidin-6-yl]-2-methyl-1-piperidyl] methanone], 0.01 to 100 nM. To `COC(=O)c1cccc(C(=O)N2CC[C@@H](N3Cc4cnc(Nc5cc(C)cc(C)c5)nc4C3)C[C@H]2C)c1` [compound 145, methyl 3-[(2R,4R)-4-[2-(3,5-dimethylanilino)-5,7-dihydropyrrolo[3,4-d]pyrimidin-6-yl]-2-methyl-piperidine-1-carbonyl]benzoate] belongs greater than 1000 nM; to `Cc1cc(C)cc(Nc2ncc3c(n2)CN([C@@H]2CCN(C(=O)c4c[nH]nn4)[C@H](C)C2)C3)c1` [compound 147, [(2R,4R)-4-[2-(3,5-dimethylanilino)-5,7-dihydropyrrolo[3,4-d]pyrimidin-6-yl]-2-methyl-1-piperidyl]-(1H-triazol-4-yl)methanone], 0.01 to 100 nM. In the case of `COc1ccc(Nc2ncc3c(n2)CN([C@@H]2CCN(C(=O)c4ccc5[nH]nnc5c4)[C@H](C)C2)C3)cc1` [compound 149, 1H-benzotriazol-5-yl-[(2R,4R)-4-[2-(4-methoxyanilino)-5,7-dihydropyrrolo[3,4-d]pyrimidin-6-yl]-2-methyl-1-piperidyl] methanone] it was 0.01 to 100 nM.
